target: T1, PD-1/PD-L1 (Homo sapiens, UniProt Q9NZQ7); assay: PD-1/PD-L1 Homogenous Time-Resolved Fluorescence (HTRF) binding assay; conditions: PD-L1-His 10 nM, PD-1-Ig 20 nM; numeric IC50; read-out: Range or IC50
T1 construct: made in house; host or cells: HEK293T
How it was run: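 Binding measured in dPBS with 0.1% BSA and 0.05% Tween-20, detected by HTRF with europium cryptate anti-Ig (1 nM final) and APC anti-His (20 nM final) added over the binding reaction. Counter-assays used human PD-1-Ig/PD-L2-His (20 and 5 nM) and CD80-His/PD-L1-Ig (100 and 10 nM).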

T1 sequence (Q9NZQ7 with tags, fused parts or gaps): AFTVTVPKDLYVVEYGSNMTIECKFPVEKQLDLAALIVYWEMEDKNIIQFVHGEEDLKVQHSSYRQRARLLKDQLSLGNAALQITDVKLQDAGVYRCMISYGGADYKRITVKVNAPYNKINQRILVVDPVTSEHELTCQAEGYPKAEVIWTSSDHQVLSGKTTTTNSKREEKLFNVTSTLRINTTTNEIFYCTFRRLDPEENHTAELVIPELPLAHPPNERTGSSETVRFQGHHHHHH

| IC50 [µM] | Structure (SMILES) |
| --- | --- |
| 0.0053 | Cc1c(COc2cc(OCc3cncc(C#N)c3)c(CN3CCCC[C@H]3C(=O)O)cc2Cl)cccc1-c1cccc(OCCCN(C)C)c1C [Example 2253, (2S)-1-(5-chloro-2-((5-cyanopyridin-3-yl)methoxy)-4-((3′-(3-(dimethylamino)propoxy)-2,2′-dimethylbiphenyl-3-yl)methoxy)benzyl)piperidine-2-carboxylic Acid] |

same assay, conditions: PD-L1-His 10 nM, PD-1-Ig 20 nM; value given as range class; read-out: Range or IC50

| IC50 [µM] | Structure (SMILES) |
| --- | --- |
| 0.01 to 0.1 | Cc1c(COc2cc(O)c(CO)cc2Cl)cccc1-c1cccc(OCCCN2CCCCC2)c1Cl [Example 2017, 4-chloro-5-((2′-chloro-2-methyl-3′-(3-(piperidin-1-yl)propoxy)-[1,1′-biphenyl]-3-yl)methoxy)-2-(hydroxymethyl)phenol] |
| 0.00021 to 0.01 | CC(CO)(CO)NCc1cc(Cl)c(OCc2cccc(-c3cccc(OCCCN4CC[C@@H](O)C4)c3Cl)c2Cl)cc1OCc1cccc(C#N)c1 [Example 2059, (R)-3-((4-chloro-5-((2,2′-dichloro-3′-(3-(3-hydroxypyrrolidin-1-yl)propoxy)-[1,1′-biphenyl]-3-yl)methoxy)-2-(((1,3-dihydroxy-2-methylpropan-2-yl)amino)methyl)phenoxy)methyl)benzonitrile] |
| 0.00021 to 0.01 | Cc1c(COc2cc(OCc3cc(Cl)cc(Cl)c3)c(CNC(CO)CO)cc2Cl)cccc1-c1cccc(OCCCN2CC[C@@H](O)C2)c1C [Example 4501, (R)-2-((5-chloro-2-((3,5-dichlorobenzyl)oxy)-4-((3′-(3-(3-hydroxypyrrolidin-1-yl)propoxy)-2,2′-dimethyl-[1,1′-biphenyl]-3-yl)methoxy)benzyl)amino)propane-1,3-diol] |
| 0.00021 to 0.01 | N#Cc1cncc(COc2cc(OCc3cccc(-c4cccc(OCCCNC[C@H](O)CO)c4Cl)c3Cl)c(Cl)cc2CNC[C@H](O)CO)c1 [Example 2033, 5-((4-chloro-5-((2,2′-dichloro-3′-(3-(((S)-2,3-dihydroxypropyl)amino)propoxy)-[1,1′-biphenyl]-3-yl)methoxy)-2-((((S)-2,3-dihydroxypropyl)amino)methyl)phenoxy)methyl)nicotinonitrile] |
| 0.00021 to 0.01 | CC(=O)N[C@H]1CCN(CCCOc2cccc(-c3cccc(COc4cc(OCc5cncc(C#N)c5)c(CN[C@](C)(CO)C(=O)O)cc4Cl)c3Cl)c2Cl)C1 [Example 2070, (R)-2-((4-((3′-(3-((S)-3-acetamidopyrrolidin-1-yl)propoxy)-2,2′-dichloro-[1,1′-biphenyl]-3-yl)methoxy)-5-chloro-2-((5-cyanopyridin-3-yl)methoxy)benzyl)amino)-3-hydroxy-2-methylpropanoic Acid] |
| 0.00021 to 0.01 | Cc1c(COc2cc(OCc3cncc(C#N)c3)c(CN(C)CC(C)(C)O)cc2Cl)cccc1-c1cccc(OCCCN2CC[C@@H](O)C2)c1Cl [Example 2068, (R)-5-((4-chloro-5-((2′-chloro-3′-(3-(3-hydroxypyrrolidin-1-yl)propoxy)-2-methyl-[1,1′-biphenyl]-3-yl)methoxy)-2-(((2-hydroxy-2-methylpropyl)(methyl)amino)methyl)phenoxy)methyl)nicotinonitrile] |
| 0.00021 to 0.01 | Cc1c(COCCN2CC[C@@H](O)C2)cccc1-c1cccc(COc2cc(OCc3cncc(C#N)c3)c(CN(C)C3(C(=O)O)CC3)cc2Cl)c1C [Example 4129, (R)-1-((5-chloro-2-((5-cyanopyridin-3-yl)methoxy)-4-((3′-((2-(3-hydroxypyrrolidin-1-yl)ethoxy)methyl)-2,2′-dimethyl-[1,1′-biphenyl]-3-yl)methoxy)benzyl)(methyl)amino)cyclopropane-1-carboxylic Acid] |
| 0.00021 to 0.01 | CCOC(=O)C1(CO)CCN(CCCOc2cccc(-c3cccc(COc4cc(OCc5cncc(S(C)(=O)=O)c5)c(CN[C@H](CO)C(=O)O)cc4Cl)c3C)c2C)C1 (stereo partly drawn) [Example 1045, (2R)-2-((5-chloro-4-((3′-(3-(3-(ethoxycarbonyl)-3-(hydroxymethyl)pyrrolidin-1-yl)propoxy)-2,2′-dimethyl-[1,1′-biphenyl]-3-yl)methoxy)-2-((5-(methylsulfonyl)pyridin-3-yl)methoxy)benzyl)amino)-3-hydroxypropanoic Acid] |
| 0.00021 to 0.01 | Cc1c(COc2cc(OCc3cncc(S(C)(=O)=O)c3)c(CNC(C)(CO)C(=O)O)cc2Cl)cccc1-c1cccc(OCCCN2CCC(CO)(C(=O)O)C2)c1Cl (single isomer, unassigned) [Example 1064] |
| 0.00021 to 0.01 | Cc1cc(OCCCN2CC[C@@H](O)C2)ccc1-c1cccc(COc2cc(OCc3cncc(C#N)c3)c(CN3CCCC[C@H]3C(=O)O)cc2Cl)c1C [Example 1071, (S)-1-(5-chloro-2-((5-cyanopyridin-3-yl)methoxy)-4-((4′-(3-((R)-3-hydroxypyrrolidin-1-yl)propoxy)-2,2′-dimethyl-[1,1′-biphenyl]-3-yl)methoxy)benzyl)piperidine-2-carboxylic Acid] |
| 0.00021 to 0.01 | Cc1c(COc2cc(OCc3cncc(C#N)c3)c(CN3CCCC(CO)C3)cc2Cl)cccc1-c1cccc(OCCCN2CCCC(CO)C2)c1C (stereo not shown) [Example 2255, 5-((4-chloro-2-((3-(hydroxymethyl)piperidin-1-yl)methyl)-5-((3′-(3-(3-(hydroxymethyl)piperidin-1-yl)propoxy)-2,2′-dimethylbiphenyl-3-yl)methoxy)phenoxy)methyl)nicotinonitrile] |
| 0.00021 to 0.01 | N#Cc1cncc(COc2cc(OCc3cccc(-c4cccc(OCCCN5CCCCC5)c4Cl)c3Cl)c(Cl)cc2CO)c1 [Example 2046, 5-((4-chloro-5-((2,2′-dichloro-3′-(3-(piperidin-1-yl)propoxy)-[1,1′-biphenyl]-3-yl)methoxy)-2-(hydroxymethyl)phenoxy)methyl)nicotinonitrile] |
| 0.00021 to 0.01 | Cc1c(COc2cc(OCc3cncc(C#N)c3)c(CNC(CO)CO)cc2Cl)cccc1-c1cccc(OCCCN2CCC(O)(C(=O)O)CC2)c1Cl [Example 2056, 1-(3-((2-chloro-3′-((2-chloro-5-((5-cyanopyridin-3-yl)methoxy)-4-(((1,3-dihydroxypropan-2-yl)amino)methyl)phenoxy)methyl)-2′-methyl-[1,1′-biphenyl]-3-yl)oxy)propyl)-4-hydroxypiperidine-4-carboxylic Acid] |
| 0.01 to 0.1 | Cc1c(COc2cc(OCc3cncc(C#N)c3)c(CNC(CO)(CO)CO)cc2Cl)cccc1-c1cccc(C(=O)N2CCOCC2)c1C [Example 4058, 5-((4-chloro-2-(((1,3-dihydroxy-2-(hydroxymethyl)propan-2-yl)amino)methyl)-5-((2,2′-dimethyl-3′-(morpholine-4-carbonyl)-[1,1′-biphenyl]-3-yl)methoxy)phenoxy)methyl)nicotinonitrile] |
| 0.00021 to 0.01 | Cc1c(COc2cc(OCc3cncc(C#N)c3)c(CNC(C)(CO)CO)cc2Cl)cccc1-c1cccc(OCCCNC(=O)C(O)CO)c1Cl (stereo not shown) [Example 2088, N-(3-((2-chloro-3′-((2-chloro-5-((5-cyanopyridin-3-yl)methoxy)-4-(((1,3-dihydroxy-2-methylpropan-2-yl)amino)methyl)phenoxy)methyl)-2′-methyl-[1,1′-biphenyl]-3-yl)oxy)propyl)-2,3-dihydroxypropanamide] |
| 0.00021 to 0.01 | Cc1c(COc2cc(OCc3cncc(C#N)c3)c(CN3CCCC[C@H]3C(=O)O)cc2Cl)cccc1-c1cccc(OC[C@H]2CCN(CC(O)CO)C2)c1Cl (stereo partly drawn) [Example 2120, (2S)-1-(5-chloro-4-((2′-chloro-3′-(((3S)-1-(2,3-dihydroxypropyl)pyrrolidin-3-yl)methoxy)-2-methyl-[1,1′-biphenyl]-3-yl)methoxy)-2-((5-cyanopyridin-3-yl)methoxy)benzyl)piperidine-2-carboxylic Acid] |
| 0.00021 to 0.01 | Cc1c(COc2cc(OCc3cncc(C#N)c3)c(CN[C@H](CO)C(=O)O)cc2Cl)cccc1-c1cccc(OC[C@@H]2CCCN3CCCC[C@H]23)c1C [Example 1042, (R)-2-((5-chloro-2-((5-cyanopyridin-3-yl)methoxy)-4-((2,2′-dimethyl-3′-(((1R,9aR)-octahydro-1H-quinolizin-1-yl)methoxy)-[1,1′-biphenyl]-3-yl)methoxy)benzyl)amino)-3-hydroxypropanoic Acid] |
| 0.00021 to 0.01 | Cc1c(COc2cc(OCc3cncc(C#N)c3)c(CN3CCCC[C@H]3C(=O)O)cc2Cl)cccc1-c1cccc(OCCCN2CC[C@@H](O)C2)c1Cl [Example 1510, (S)-1-(5-chloro-4-((2′-chloro-3′-(3-((R)-3-hydroxypyrrolidin-1-yl)propoxy)-2-methyl-[1,1′-biphenyl]-3-yl)methoxy)-2-((5-cyanopyridin-3-yl)methoxy)benzyl)piperidine-2-carboxylic acid] |
| 0.00021 to 0.01 | Cc1c(COc2cc(OCc3cncc(C#N)c3)c(CN[C@H](C(=O)O)[C@@H](C)O)cc2Cl)cccc1-c1cccc(OCCCN2CC[C@@H](O)C2)c1C [Example 4148, (5-chloro-2-((5-cyanopyridin-3-yl)methoxy)-4-((3′-(3-((R)-3-hydroxypyrrolidin-1-yl)propoxy)-2,2′-dimethyl-[1,1′-biphenyl]-3-yl)methoxy)benzyl)-L-threonine] |
| 0.00021 to 0.01 | Cc1c(COCCN2CC[C@@H](O)C2)cccc1-c1cccc(COc2cc(OCc3cncc(C#N)c3)c(CNC(CO)CO)cc2Cl)c1C [Example 4122, (R)-5-((4-chloro-2-(((1,3-dihydroxypropan-2-yl)amino)methyl)-5-((3′-((2-(3-hydroxypyrrolidin-1-yl)ethoxy)methyl)-2,2′-dimethyl-[1,1′-biphenyl]-3-yl)methoxy)phenoxy)methyl)nicotinonitrile] |

| Structure (SMILES) | IC50 [µM] |
| --- | --- |
| Cc1c(COc2cc(OCc3cncc(C#N)c3)c(CNC(C)(CO)CO)cc2Cl)cccc1-c1cccc(OCCC(C)(C)O)c1Cl [Example 2080, 5-((4-chloro-5-((2′-chloro-3′-(3-hydroxy-3-methylbutoxy)-2-methyl-[1,1′-biphenyl]-3-yl)methoxy)-2-(((1,3-dihydroxy-2-methylpropan-2-yl)amino)methyl)phenoxy)methyl)nicotinonitrile] | 0.00021 to 0.01 |

— US10745382B2 (BRISTOL-MYERS SQUIBB COMPANY, priority 2015, dated 2020)
